Read-outs that look alike come from different tables or passages of the source.
Columns and labels:
C57BL/6 (B6) male mice [1] = test: Spleen cell populations by flow cytometry in the tolerability study; assay type: in vivo; conditions: for CD4+ spleen cells / CD8+ spleen cells / Cd11b+/Gr-1+ spleen cells: percentage from the CD45+ cells
Method: (§1) During the experiments, mice behavior and possible apparent signs of toxicity were monitored daily. The body weights were determined on days 0, 4, and 8. On day 8, blood (25 μL) was withdrawn using a capillary pipette containing anticoagulant (heparin) from the retroorbital sinus into EDTA-containing tubes. Basic hematological parameters were measured using the Mindray BC-5300 Vet. Mice were then killed, autopsied, and abdominal organs (spleen, liver, and kidney) were removed for visual examination and imaging by a digital camera. Single-cell suspensions from the spleens were prepared by homogenization through a cell strainer (70 μm; BD Biosciences, San Jose, CA, USA). Erythrocytes were osmotically lysed using ammonium chloride-potassium lysis buffer, and the cell suspensions were washed three times in the RPMI-1640 medium and used for further analysis by flow cytometry for selected cell populations.
The cellularity of selected spleen cell populations was analyzed by flow cytometry. Cell suspensions were washed and preincubated with anti-CD16/CD32 (2.4G2) antibody to minimize non-specific binding at 4°C for 15 min following the washing step and incubation with labeled primary antibody at 4°C for 30 min. Relevant isotype controls of irrelevant specificity were used. FACS buffer (PBS, 1% FBS, 0.1% NaN3) was used for all washing steps and analysis. The following antibodies were used for FACS analyses: BV421 anti-mouse CD45 (30-F11), PE anti-mouse CD8α (53-6.7), BV711 anti-mouse CD4 (RM4-5), APC anti-mouse Ly-6g/Ly-6C (Gr-1) (RB6-8C5), BV711 anti-mouse CD11b (M1/70). FACS analysis was performed using a flow cytometer Symphony (BD Biosciences) and analyzed using FlowJo 10 software (FlowJo LLC, Ashland, OR, USA).

[2] = Dissociation constants by spectrophotometric titration; assay type: physicochemical; conditions: 20°C; for pKa: ultrapure water
Method: The spectrophotometric titration was used for dissociation constants’ determination, utilizing spectrophotometer Agilent Cary-60 (Agilent Technologies, CA, USA), pH meter WTW InoLab_IDS Multi 9430 (WTW, Czech Republic), and pH electrode SenTix® Mic (WTW, Czech Republic). Data were analyzed by GraphPadPrism 8.0 software (GraphPad Software, CA, USA). The analyzed samples were prepared by adding 20 μL of compound stock solution (2 mg/mL) and 20 μL of 0.1 M hydrochloric acid into the cuvette with ultrapure water (total volume 3.5 mL). The samples were titrated by 0.1 M sodium hydroxide at 20°C while acquiring absorption spectra (190–500 nm) at different pH values. Absorbance at the chosen wavelength was plotted as a function of pH. The inflection point in the given plot was used for pKa value determination.

C57BL/6 (B6) male mice [3] = test: In vivo tolerability study (behaviour, signs of toxicity, body weight)
Method: C57BL/6 (B6) male mice, 8–12 weeks old, were obtained from the Institute of Molecular Genetics, Prague, Czech Republic. Experimental protocols were approved by the Institutional Animal Care Committee of the Institute of Molecular Genetics, Prague.
Compounds were dissolved in 20 μL DMSO and completed into 200 μL with corn oil.
as §1

TMZ-U87 cells = test: Time-lapse microscopy with annexin V of TMZ-induced senescent U87; assay type: cell-based, human; conditions: 0–100 μM, 72 h
Method: To obtain ionizing radiation (IR)-induced senescent cells, proliferating RPE-1 cells were exposed to a single dose of X-rays (20 Gy) using Pantak HF160 (Gulmay, Surrey, UK) X-ray instrument equipped with Pantak Seifert HF320 generator, MXR-161 X-ray tube (Comet AG, Flamatt, Switzerland), and an aluminum filter using current 1–10 mA. After irradiation, the cells were cultured for an additional 7 days until the development of the senescent phenotype ([Salovska et al., 2022]). To induce docetaxel-induced senescence (DIS), BJ cells were exposed to 5 nM docetaxel for 7 days, as described previously ([Sapega et al., 2018]). To prepare temozolomide (TMZ)-induced senescence, U87 cells were exposed to 100 μM TMZ for 14 days.
For auto-monitoring of cells, Incucyte SX1 Live-Cell Analysis System (Sartorius, Göttingen, Germany), located in an incubator maintained at 37°C under a 5% CO2 atmosphere and 95% humidity, was utilized. The images (1,408 × 1,040 pixels at 1.24 microns/pixel) were acquired using a 10× objective lens in phase contrast, red fluorescence (excitation: 585 ± 20 nm, emission: 635 [625, 705] nm, acquisition time: 100 ms) channels every 60 min during 72 h. The first image was acquired 30 min after adding compounds. The images were processed to measure cell confluence using Incucyte software (version 2022A). […]

[4] = CNS MPO desirability score; conditions: from experimental and calculated data, method of Wager et al. (2016); scale 0-6
Method: ACDLAbs PhysChem Suite 14.0 software (Advanced Chemistry Development, Inc., Toronto, ON, Canada) was used for the calculation of Mw, tPSA, and HBD values. The CNS MPO score calculation method was described by [Wager et al. (2016)].
Central nervous system multiparameter optimization desirability score was calculated as described by [Wager et al. (2016)], utilizing all collected experimental and calculated data. This scoring tool was set on ranges of desirable property space and linear transformational functions with values between 0 and 1 (defined as T0 for each property). Rating each parameter equally, the collective score ranges from 0 to 6, while a score higher than 4 is desirable ([Rankovic, 2015]).

[5] = tested on: pro-inflammatory cytokines of SASP; test: Secretion of pro-inflammatory cytokines (SASP) by senescent cells; assay type: cell-based, human; conditions: 50 μM, 24 h; for all detectable cytokines (IL-1α, IL-1β, IL-6, IL-8, IL-27, MCP-1, TNFα): TMZ-induced U87 senescent cells
Method: To determine the secretion of selected inflammatory cytokines into culture media, cell cultures were exposed to tested compounds (50 μM) for 24 h. Then the culture medium was removed, cells were washed three times with 1 mL PBS, and a fresh medium without FBS was added for 24 h. Detection of cytokines in conditioned culture media was done by Human Inflammation 11-Plex Panel: IFNγ, IL-1α, IL-1β, IL-6, IL-8, IL-10, IL-12p70, IL-27, IP-10, MCP-1, and TNFα (AimPlex Biosciences, Inc.) using a BD FACSVerseTM flow cytometer (BD Biosciences, Franklin Lakes, NJ, USA) according to manufacturer’s protocol. Data were analyzed using FlowJo 10 software (FlowJo LLC, Ashland, OR, USA).
Importantly, compound 3 decreased IL-1α, IL-8, and MCP-1 consistently in all tested senescence models. The effect of compound 3 on IL-6 was variable.

[6] = 5 mg/kg p.o. days 0, 3, 5, spleen day 8
[7] = 25 mg/kg p.o. days 0, 3, 5, spleen day 8
[8] = 50 mg/kg p.o. days 0, 3, 5, spleen day 8
[9] = p.o. 5, 25 and 50 mg/kg body weight, days 0, 3, 5
[10] = all tested senescence models (DIS-BJ, IR-RPE-1, TMZ-U87)

Row | SMILES | CD45+ spleen cells (C57BL/6 (B6) male mice [1]; [6]) | CD4+ spleen cells (C57BL/6 (B6) male mice [1]; 5 mg/kg p.o.) | CD8+ spleen cells (C57BL/6 (B6) male mice [1]; 5 mg/kg p.o.) | Cd11b+/Gr-1+ spleen cells (C57BL/6 (B6) male mice [1]; 5 mg/kg p.o.) | CD45+ spleen cells (C57BL/6 (B6) male mice [1]; [7]) | CD4+ spleen cells (C57BL/6 (B6) male mice [1]; 25 mg/kg p.o.) | CD8+ spleen cells (C57BL/6 (B6) male mice [1]; 25 mg/kg p.o.) | Cd11b+/Gr-1+ spleen cells (C57BL/6 (B6) male mice [1]; 25 mg/kg p.o.) | CD45+ spleen cells (C57BL/6 (B6) male mice [1]; [8]) | CD4+ spleen cells (C57BL/6 (B6) male mice [1]; 50 mg/kg p.o.) | CD8+ spleen cells (C57BL/6 (B6) male mice [1]; 50 mg/kg p.o.) | Cd11b+/Gr-1+ spleen cells (C57BL/6 (B6) male mice [1]; 50 mg/kg p.o.) | signs of whole body or organ toxicities (C57BL/6 (B6) male mice [3]; [9]) | all detectable cytokines (IL-1α, IL-1β, IL-6, IL-8, IL-27, MCP-1, TNFα) [5] | other results
1 | Nc1ccc(C(=O)Nc2cccc(-c3c[nH]c4ncccc34)c2)cc1O [Compound 3, N-(3-(1H-pyrrolo[2,3-b]pyridin-3-yl)phenyl)-4-amino-3-hydroxybenzamide] | 94.3% | 19.0% | 11.4% | 0.7% | 95.9% | 15.9% | 9.6% | 1.0% | 97.2% | 16.0% | 9.8% | 0.8% | no apparent signs | suppressed | pKa ([2]; read-out: pKa1): 3.6 ± 0.29; pKa ([2]; read-out: pKa2): 7.91 ± 0.15; symptoms of intoxication (C57BL/6 (B6) male mice [3]; 50 mg/kg body weight, perorally): did not exert any symptoms of intoxication; changes in mice behavior and body weights (C57BL/6 (B6) male mice [3]; [9]): no changes; cell phenotype in time-lapse microscopy, annexin V staining (TMZ-U87 cells): loss of cell adhesion followed by cell death; MPO (CNS MPO score) [4]: 4.5; IL-6 level in conditioned medium ([5]; DIS-BJ senescent cells): apparent decrease; IL-6 level in conditioned medium ([5]; TMZ-U87 senescent cells): apparent decrease; IL-1α level in conditioned medium [5, 10]: decreased; IL-8 level in conditioned medium [5, 10]: decreased; MCP-1 level in conditioned medium [5, 10]: decreased
2 | CC(C)n1nc(-c2cc3cc(O)ccc3[nH]2)c2c(N)ncnc21 [Torkinib, torkinib] | 92.0% | 15.5% | 10.4% | 0.9% | 96.7% | 15.4% | 9.8% | 0.6% | 84.0% | 16.6% | 10.2% | 1.3% | no apparent signs | suppressed | pKa1 [2]: 3.96 ± 0.02; pKa2 [2]: 10.37 ± 0.18

From paper PMC9767416, “Discovery of small molecule mechanistic target of rapamycin inhibitors as anti-aging and anti-cancer therapeutics” (Frontiers in Aging Neuroscience, 2022)
